Consider 17 molecules from patent US8889678B2, “Acyl guanidine derivatives modulating the hedgehog protein signaling pathway” (Centre National de la Recherche Scientifique, priority 2009, dated 2014).

Read-outs that look alike come from different tables or passages of the source.

As a reminder, the melting point is the temperature of the solid-liquid transition.

The subject of data set [1] is Hedgehog protein signaling pathway. In words: Inhibition of SAG-induced alkaline phosphatase activity (differentiation) in C3H10T1/2 cells. Type of data set: cell-based. Particulars: read-out: IC50 (concentration which inhibits 50% of the alkaline phosphatase activity). Here is the method: The compounds of formula (I) to be tested were dissolved in dimethyl sulfoxide until a concentration of 10 mM was obtained, and then stored at a temperature of −20° C. until use.
The pluripotent fibroblast cell line C3H10T1/2 was cultured under the conditions recommended by the American Type Culture Collection (ATCC).
Activation with SAG causes the cell line to differentiate and allows the cells to express alkaline phosphatase. It was thus possible to measure the activity of the Hedgehog protein signaling pathway by measuring the alkaline phosphatase activity.
The C3H10T1/2 cells were seeded onto 96-well plates at a density of 5×10^3 cells per well, 24 hours before the addition of the test compounds at a concentration ranging from 1 nM to 30 μM and in the presence of 0.1 μM of SAG, using DMEM (Dulbecco's Modified Eagle's Medium) with 10% fetal calf serum, as culture medium. The tests were carried out in quadruplicate. The plates were then incubated for 5 to 6 days at a temperature of 37° C. under an atmosphere of 5% CO2. The cells were then washed in a cold phosphate buffer (Phosphate Buffered Saline: PBS), and then lysed by sonication at 4° C. in 50 μL of solution containing 0.9% of NaCl and 0.2% of Triton X-100.

In data set [2] the target is T1, mouse Smoothened receptor (Mus musculus, UniProt P56726).
T1 construct: expressed in transfected cells; host or cells: HEK293 cells, transiently transfected with Fugene6
Description: Competition with bodipycyclopamine binding on HEK293 cells transfected with mouse Smoothened. Particulars: 5 nM bodipycyclopamine, 2 hours at 37° C., read-out: IC50 (concentration which inhibits 50% of the bodipycyclopamine binding).
Description: HEK293 cells are seeded at 70 000 cells per well onto glass cover slips treated with poly-D-lysine in a 24-well plate, and transfected the following day with 0.25 μg of plasmid encoding the mouse Smoothened protein using 0.7 μl of Fugene6 (Roche biochemicals) according to the protocol described by the supplier (i.e. 0.7 μl of Fugene 6 are added to 24 μl of DMEM without any additive, in each well. The mixture is then incubated for 5 minutes at ambient temperature, 0.25 μg of plasmid DNA are added, and then the whole is mixed and incubated for 20 to 30 minutes at ambient temperature. 25 μl of the mixture thus prepared are then added directly to the cell culture medium, in each well of the plate containing 24 wells). After 48 hours, the culture medium is removed, and the cells are rinsed once with 1 ml of a PBS (Phosphate Buffered Saline) phosphate buffer solution, and then fixed for 20 minutes in the presence of an ice-cold solution of paraformaldehyde (PFA) at 4%, and 0.12 M glucose in a PBS phosphate buffer solution. The cells are then rinsed once and washed twice for 5 minutes with 1 ml of a PBS phosphate buffer solution containing 0.5% of fetal calf serum (PBS-FCS). […] The cells are then washed twice for 5 minutes with 1 ml of PBS-FCS, then brought into contact with 1 ml of a 1×PBS phosphate buffer solution. Finally, the cover slips are mounted on a glass slide in the presence of Vectashield containing DAPI (4′,6′-diamidino-2-phenylindole) so as to label the cell nuclei (Vector). […] The fluorescence intensity is then analyzed using the Simple PCI 6.2 software (Hamamatsu Corporation), and then related to the surface area of the nuclei present on the photograph.

In data set [3] the test system is Shh pathway. Description: In vivo inhibition of Shh-induced Patched mRNA in the subventricular zone of adult mouse brain (in situ hybridization). Particulars: adult mice, 4.5 pmol injected with recombinant Shh protein (290 ng) into the lateral ventricle, in situ hybridization 48 hours after injection. Here is the method:
Adult male Swiss mice (8 weeks old, 35 g) were anesthetized with a mixture of ketamine (Mérial®, Lyon, France) (0.1 mg/g) and xylazine (Bayer®, Puteaux, France) (0.01 mg/g) by intraperitoneal (i. p.) injection. The recombinant Shh protein (290 ng in a buffer solution containing 150 mM of sodium chloride NaCl and 0.5 mM of dithitheritol DTT), was diluted in 4.5 μl of a solution of 2-hydroxypropyl-beta-cyclodextrin (HBC) at 45% in PBS optionally containing 4.5 pmol of Cur61414 or of compound 24. This mixture was injected stereotaxically into the right lateral ventricle (LV) (n=5 animals for each group), at the following coordinates given relative to the Bregma axis: anteroposterior+0.2 mm; lateral+0.8 mm; dorsoventral−2.5 mm. The reference atlas for the stereotaxic coordinates is: The mouse brain in stereotaxic coordinates, Georges Paxinos, Keith B. J., Franklin, 2nd edition, 2001, Academic Press (San Diego, United States).
The detection of the Patched messenger RNA by in situ hybridization was carried out 48 hours after the injection, as described by Traiffort et al., Eur. J. Neursci, 1999, 11, 3199-3214.

In data set [4] the test system is cells. Particulars: Borzillo et al., Curr. Top Med. Chem., 2005; cited from earlier work.
Where [5] appears, read: Mus musculus, C3H 10T1/2, after induction with 0.1 μM SAG.

T1 sequence (P56726 33-793): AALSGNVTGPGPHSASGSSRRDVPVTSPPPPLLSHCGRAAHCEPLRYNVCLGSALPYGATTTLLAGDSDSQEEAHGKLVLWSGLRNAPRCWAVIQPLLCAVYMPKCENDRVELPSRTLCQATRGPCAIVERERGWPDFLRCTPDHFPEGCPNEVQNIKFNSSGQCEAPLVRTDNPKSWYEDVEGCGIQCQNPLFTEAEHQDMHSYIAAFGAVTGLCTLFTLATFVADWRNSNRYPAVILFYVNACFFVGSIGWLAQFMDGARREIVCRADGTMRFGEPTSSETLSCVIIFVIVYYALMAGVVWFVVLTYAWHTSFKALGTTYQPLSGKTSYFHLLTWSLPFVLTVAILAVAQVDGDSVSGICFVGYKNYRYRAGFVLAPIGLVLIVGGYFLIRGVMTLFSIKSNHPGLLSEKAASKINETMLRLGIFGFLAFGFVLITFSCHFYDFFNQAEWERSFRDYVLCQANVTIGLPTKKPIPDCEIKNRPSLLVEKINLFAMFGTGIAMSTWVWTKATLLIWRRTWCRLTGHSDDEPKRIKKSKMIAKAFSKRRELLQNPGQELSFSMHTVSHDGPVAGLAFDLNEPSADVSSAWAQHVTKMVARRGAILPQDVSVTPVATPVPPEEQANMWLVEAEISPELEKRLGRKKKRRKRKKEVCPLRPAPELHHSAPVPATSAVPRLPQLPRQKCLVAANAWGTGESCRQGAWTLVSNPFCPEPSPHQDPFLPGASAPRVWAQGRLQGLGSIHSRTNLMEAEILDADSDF

Take `COc1cc(C(=O)NC(=N)Nc2cccc(NC(=O)c3ccccc3)c2)cc(OC)c1OC` [Compound 15, N—(N-(3-benzamidophenyl)carbamimidoyl)-3,4,5-trimethoxybenzamide]: the IC50 in data set [1] (setting [5]) was in the range of 300 to 1000 nM.

`COc1cc(C(=O)NC(=N)Nc2ccc(Cl)c(NC(=O)c3ccccc3)c2)cc(OC)c1OC` [Compound 16, N—(N-(3-benzamido-4-chlorophenyl)carbamimidoyl)-3,4,5-trimethoxybenzamide]: the IC50 in data set [1] (setting [5]) is 300 to 1000 nM. On the same count and under the same terms, for `COc1cc(C(=O)NC(=N)Nc2ccc(Cl)c(NC(=O)c3ccc(-c4ccccc4)cc3)c2)cc(OC)c1OC` [Compound 17, N-(2-chloro-5-(3-(3,4,5-trimethoxybenzoyl)guanidino)phenyl)-biphenyl-4-carboxamide] the value was 30 to 300 nM; for `COc1cc(C(=O)NC(=N)Nc2cccc(NC(=O)c3ccc(N4CCOCC4)cc3)c2)cc(OC)c1OC` [Compound 18, 3,4,5-trimethoxy-N—(N-(3-(4-morpholinobenzamido)phenyl)-carbamimidoyl)benzamide], 30 to 300 nM. On to `COc1cc(C(=O)NC(=N)Nc2cccc(-c3cc4ccccc4[nH]3)c2)cc(OC)c1OC` [Compound 19, N—(N-(3-(1H-indol-2-yl)phenyl)carbamimidoyl)-3,4,5-trimethoxybenzamide], for which the melting point worked out at 149 °C. In data set [1] (setting [5]), the IC50 was in the range of 30 to 300 nM. Molecule `COc1ccc(NC(=O)c2cc(NC(=N)NC(=O)c3cc(OC)c(OC)c(OC)c3)ccc2Cl)cc1` [Compound 20, N—(N-(4-chloro-3-(4-methoxyphenylcarbamoyl)phenyl)-carbamimidoyl)-3,4,5-trimethoxybenzamide] registered a melting point of 105 °C. Also, the IC50 in data set [1] (setting [5]) lay within 300 to 1000 nM.

On to `COc1cc(C(=O)NC(=N)Nc2ccc(Cl)c(C(=O)Nc3ccccc3)c2)cc(OC)c1OC` [Compound 21, N—(N-(4-chloro-3-(phenylcarbamoyl)phenyl)carbamimidoyl)-3,4,5-trimethoxybenzamide], for which the IC50 in data set [1] (setting [5]) lay in the range of 300 to 1000 nM. Same read-out and setting: for `COc1cc(C(=O)NC(=N)Nc2ccc(C)c(C(=O)Nc3ccccc3)c2)cc(OC)c1OC` [Compound 22, 3,4,5-trimethoxy-N—(N-(4-methyl-3-(phenylcarbamoyl)phenyl)-carbamimidoyl)benzamide] the value was 30 to 300 nM. Regarding `COc1cc(C(=O)NC(=N)Nc2cccc(NC(=O)c3ccc(-c4ccc(F)cc4)cc3)c2)cc(OC)c1OC` [Compound 23, 4′-fluoro-N-(3-(3-(3,4,5-trimethoxybenzoyl)guanidino)phenyl)-biphenyl-4-carboxamide], the IC50 in data set [1] (setting [5]) and in data set [2] was 3 to 30 nM in each case. On to `COc1cc(C(=O)NC(=N)Nc2ccc(C)c(NC(=O)c3ccc(-c4ccccc4)cc3)c2)cc(OC)c1OC` [Compound 24, N-(2-methyl-5-(3-(3,4,5-trimethoxybenzoyl)guanidino)phenyl)-biphenyl-4-carboxamide], for which the IC50 in data set [1] (setting [5]) and in data set [2] was 3 to 30 nM throughout. Besides, the “Induction of the Ptc gene messenger RNA in the subventricular zone” value in data set [3] was “disappears”. With `COc1cc(C(=O)NC(=N)Nc2cccc(-c3cn4ccsc4n3)c2)cc(OC)c1OC` [Compound 28], in data set [1] (setting [5]), the IC50 was 300 to 1000 nM. The same measure, in the same setting: for `COc1cc(C(=O)NC(=N)Nc2cccc(-n3ccc4ccccc43)c2)cc(OC)c1OC` [Compound 29, N—(N-(3-(1H-indol-1-yl)phenyl)carbamimidoyl)-3,4,5-trimethoxybenzamide] the value was 300 to 1000 nM; for `COc1cc(C(=O)NC(=N)Nc2ccc(C)c(NC(=O)c3ccc(-c4ccc(F)cc4)cc3)c2)cc(OC)c1OC` [Compound 30, 4′-fluoro-N-(2-methyl-5-(3-(3,4,5-trimethoxybenzoyl)-guanidino)phenyl)biphenyl-4-carboxamide], 3 to 30 nM. `COc1cc(C(=O)NC(=N)Nc2ccc(Cl)c(NC(=O)Nc3ccccc3)c2)cc(OC)c1OC` [Compound 38, N—(N-(4-chloro-3-(3-phenylureido)phenyl)carbamimidoyl)-3,4,5-trimethoxybenzamide]: the melting point amounted to 127 °C.

Turning to `COc1cccc(CN(C(=O)CC(C)(C)C)C2CC(C(=O)N3CCNCC3)N(Cc3ccc4c(c3)OCO4)C2)c1` (stereo not shown) [Cur61414, reference compound], the results for the IC50 in data set [1] (setting [5]) and in data set [2] were 300 to 1000 nM and 30 to 300 nM, respectively. Also, the “Induction of the Ptc gene messenger RNA in the subventricular zone” value in data set [3] is recorded as “disappears”. As for `CS(=O)(=O)c1ccc(C(=O)Nc2ccc(Cl)c(-c3ccccn3)c2)c(Cl)c1` [GDC-0449, reference compound], in data set [1] (setting [5]), the IC50 lay within 3 to 30 nM. In the case of cyclopamine [reference compound], the IC50 in data set [1] (after induction with 0.1 μM SAG) lay within 300 to 1000 nM. In addition, the “concentrations cytotoxic for cells” value in data set [4] was “above 10 μM”.
